Source: patent US9301943B2, “Use of eupatilin” (UNIVERSITY-INDUSTRY COOPERATION GROUP OF KYUNG HEE …, priority 2011, dated 2016)

Assays:
estrogen receptor [1] = assay: Luciferase assay (3×ERE TATA luc), MCF7 cell line; type: cell-based, human; settings: for Estrogen receptor subtype through which the substance acts (luciferase assay with siERα / siERβ): MCF-7 breast cancer cells, siRNA 50 nM; for Luciferase activity (-fold): MCF7, 24 h, non-treated group = 1
Method: (§1) MCF-7 (estrogen receptor-positive human breast cancer cell line), Ishikawa (estrogen receptor-positive endometrial cancer cell line), and MG-63 (human osteosarcoma; osteoblast-like cell line) were obtained from the American Type Culture Collection (ATCC). BG-1 (uterine cancer cell line) was furnished by courtesy of Dr. Korach (NIH, USA). Cells were cultured in a Dulbecco's modified Eagle's medium (DMEM) containing 10% fetal bovine serum (FBS), 100 U/ml penicillin and 100 U/ml streptomycin, at 37° C. and 5% CO2.
(§2) The luciferase assay is an assay of estimating an estrogenic activity by measuring the degree of a luciferase activity generated upon binding of a substance having an estrogenic activity to an estrogen receptor. This assay was carried out in the following procedure. Unless otherwise specified, the reagents used were purchased from Gibco (Karlwruhe, Germany).
(§3) The luciferase reporter plasmid used was 3×ERE TATA luc. (Addgene, Cambridge, USA). In order to control transfection efficiency, phRenilla-luciferase-CMV (Promega, Mannheim, Germany) as an internal control plasmid was co-transfected. Cells were cultured at a density of 2×10^5 cells/well in a 6-well plate, in a phenol red-free DMEM (Dulbecco's modified Eagle's medium) supplemented with 100 U/ml penicillin, […] streptomycin, 1 mM sodium pyruvate, 1 mM glutamine, and 10% charcoal dextran-treated fetal bovine serum (FBS). After the cells were cultured to a 50 to 60% confluence, the medium was removed, the cells were placed at 37° C. and 5% CO2 for 6 hours on a serum-free OPTI-MEM medium containing plasmid DNA constructs and 2 μg/ml of polyethyleneimine (PEI), according to the manufacturer's instructions. 1 μg/well of 3×ERE TATA luc and 100 ng of a phRL-CMV plasmid were subjected to transfection.
(§4) After the period of transfection, the medium was replaced with a phenol-free DMEM supplemented with 10% charcoal dextran-treated FBS, and the cells were cultured at 37° C. and 5% CO2 overnight prior to treatment of eupatilin.
(§5) After 18 hours of culture, the medium was replaced with a eupatilin-containing medium. The proteins were extracted 24 hours later, and firefly and renilla luciferase activities were measured on a luminometer (Molecular Devices, Sunnyvale, Calif.) using a Dual Luciferase Assay kit (Promega, Madison, Wis.) according to the manufacturer's instructions.
(§6) All experiments were carried out in triplicate and were repeated at least three times. For the luciferase assay, total cell lysates were prepared, the firefly luciferase activity was assayed and normalized to the renilla luciferase activity according to the manufacturer's instructions (Promega). Further, in order to knock down the cell levels of specific proteins, cells with co-transfection of small interfering RNAs (siRNAs) together with 3×ERE TATA luc and phRL-CMV were prepared and subjected to the same treatment of eupatilin or the like as in the cells which were not treated with siRNAs. The siRNAs used were purchased from Bioneer Corporation (Daejeon, South Korea) and treated at a concentration of 50 nM. The “siERα” means siRNA which inhibits the expression of ERα, and the “siERβ” means siRNA which inhibits the expression of ERβ.

estrogen receptor [2] = assay: Luciferase assay (3×ERE TATA luc), Ishikawa cells; type: cell-based; settings: for Estrogen receptor subtype through which the substance acts (luciferase assay with siERα / siERβ): Ishikawa endometrial cancer cells, siRNA 50 nM; for Luciferase activity (-fold): Ishikawa, 24 h, non-treated group = 1
Method: as §1, §2, §3, §4, §5, §6

estrogen receptor [3] = assay: Luciferase assay (3×ERE TATA luc), BG-1 cell line; type: cell-based; settings: 24 h, non-treated group = 1
Method: as §1, §2
as §3, with “1 μg/well of 3×ERE TATA luc and 100 ng of a phRL-CMV plasmid were subjected to transfection.” left out
as §5, with “instructions. […]” for “instructions.”

estrogen receptor [4] = target: T1, estrogen receptor (Homo sapiens, UniProt Q92731); assay: Luciferase assay (3×ERE TATA luc), MG63 cell line; type: cell-based; settings: for Luciferase activity (-fold): MG63, 24 h, non-treated group = 1
T1 construct: MG-63 (human osteosarcoma; osteoblast-like cell line); endogenous in cells; host or cells: MG-63
Method: as §1, §2, §3, §4, §5
All experiments were carried out in triplicate and were repeated at least three times. For the luciferase assay, total cell lysates were prepared, the firefly luciferase activity was assayed and normalized to the renilla luciferase activity according to the manufacturer's instructions (Promega). […]

MCF7 breast cancer cells = assay: MTT assay, cancer cell growth; type: cell-based, human; settings: 48 h, control DMSO
Method: Cell viability was estimated by the MTT (3-[4,5-dimethylthiazol-2-yl]-2,5-diphenyltetrazolium bromide; Sigma-Aldrich) assay to confirm cancer cell growth inhibitory effects of eupatilin.
MCF7 breast cancer cells were seeded onto a 96-well plate and incubated for 24 hours. […] On the day of collection, 50 μl of MTT solution (5 mg/ml in PBS) was added to the medium, followed by incubation at 37° C. for 4 hours. The MTT-containing medium was removed and the cells were solubilized in DMSO (100 μl) for 30 min. The cell viability was determined in terms of an optical density at 540 nm using a microplate spectrophotometer (SpectraMax; Molecular Devices, Sunnyvale, Calif.).
Ethanol which is a vehicle was served as control for the E2-treated group, and DMSO was served as control for the eupatilin-treated group.
The viability is expressed in terms of a relative ratio by taking a value of the control to be 100, and the lethality is also expressed in terms of a relative ratio by taking a value of the control to be 100.

MG-63 cells = assay: ALP activity in osteoblastic cells; type: cell-based, human; settings: 24 h
Method: The ALP activity in MG-63 cells treated with eupatilin was measured to confirm that eupatilin enhances a bone density in osteoblastic cells. […] Based on the fact that ALP degrades p-nitrophenylphosphate into p-nitrophenol and phosphate, effects of eupatilin on osteoblasts were observed by measuring an ALP activity in terms of an absorbance ratio between the absorbance of each substance and the absorbance of the control at 405 nm.
After 24 hours of the treatment, lysates were prepared and slowly shaken for 30 min. Then, the ALP activity was assayed by measuring the release of p-nitrophenol from p-nitrophenylphosphate (20 mM in 1M diethanolamine buffer supplemented with MgCl2 at pH 9.8). The absorbance was measured at 405 nm. The standard curve was drawn using various concentrations of […] within the range of 0 to 0.1 U/ml PBS-T. The ALP values were adjusted for the protein content of the corresponding cell lysates. The cultures protein content was quantified by means of a bicinchoninic acid protein assay (Thermo Scientific). The results obtained were compared with those of the control to which only BSA was added at a concentration of 100 nM and no specimen was added.

T1 sequence (Q92731 whole entry): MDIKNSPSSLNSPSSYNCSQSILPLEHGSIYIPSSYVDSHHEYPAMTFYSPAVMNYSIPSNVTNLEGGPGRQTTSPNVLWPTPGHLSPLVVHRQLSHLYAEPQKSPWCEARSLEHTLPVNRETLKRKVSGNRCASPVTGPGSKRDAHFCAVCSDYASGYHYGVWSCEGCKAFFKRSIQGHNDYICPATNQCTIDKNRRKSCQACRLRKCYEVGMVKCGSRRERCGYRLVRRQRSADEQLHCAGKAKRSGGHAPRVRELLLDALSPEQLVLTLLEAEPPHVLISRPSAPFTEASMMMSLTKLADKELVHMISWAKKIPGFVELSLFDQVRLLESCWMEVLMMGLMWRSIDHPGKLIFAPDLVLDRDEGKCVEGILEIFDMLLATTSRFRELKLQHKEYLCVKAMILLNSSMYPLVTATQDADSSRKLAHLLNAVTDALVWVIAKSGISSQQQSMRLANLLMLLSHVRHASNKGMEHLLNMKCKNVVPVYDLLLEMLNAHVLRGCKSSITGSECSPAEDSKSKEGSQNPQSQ

Structure (SMILES): C[C@]12CC[C@@H]3c4ccc(O)cc4CC[C@H]3[C@@H]1CC[C@@H]2O [E2, 17-β-estradiol, reference compound]
- Estrogen receptor subtype through which the substance acts (luciferase assay with siERα / siERβ) (estrogen receptor [1]; E2 10^−7 M, FIG. 1): largely induces cell proliferation via only ERα
- Estrogen receptor subtype through which the substance acts (luciferase assay with siERα / siERβ) (estrogen receptor [2]; E2 10^−7 M, FIG. 2): largely induces cell proliferation via only ERα

Structure (SMILES): COc1ccc(-c2cc(=O)c3c(O)c(OC)c(O)cc3o2)cc1OC [Eupatilin, 5,7-dihydroxy-3′,4′,6-trimethoxyflavone]
- Luciferase activity (-fold) (estrogen receptor [1]; eupatilin 0.01 μg/ml): 2.4 -fold
- Luciferase activity (-fold) (estrogen receptor [1]; eupatilin 0.1 μg/ml): 2.3 -fold
- Luciferase activity (-fold) (estrogen receptor [1]; eupatilin 1 μg/ml): 2.8 -fold
- Estrogen receptor subtype through which the substance acts (luciferase assay with siERα / siERβ) (estrogen receptor [1]; eupatilin 0.1 or 1.0 μg/ml, FIG. 3): acts equally on both ERα and ERβ
- Luciferase activity (-fold) (estrogen receptor [3]; eupatilin 0.01 μg/ml): 2.9 -fold
- Luciferase activity (-fold) (estrogen receptor [3]; eupatilin 0.1 μg/ml): 3.3 -fold
- Luciferase activity (-fold) (estrogen receptor [3]; eupatilin 1 μg/ml): 3.7 -fold
- Estrogen receptor subtype through which the substance acts (luciferase assay with siERα / siERβ) (estrogen receptor [2]; eupatilin 0.1 or 1.0 μg/ml, FIG. 4): acts equally on both ERα and ERβ
- Luciferase activity (-fold) (estrogen receptor [2]; eupatilin 0.01 μg/ml): 1.4 -fold
- Luciferase activity (-fold) (estrogen receptor [2]; eupatilin 0.1 μg/ml): 1.9 -fold
- Luciferase activity (-fold) (estrogen receptor [2]; eupatilin 1 μg/ml): 2.9 -fold
- Luciferase activity (-fold) (estrogen receptor [4]; eupatilin 0.01 μg/ml): 2.1 -fold
- Luciferase activity (-fold) (estrogen receptor [4]; eupatilin 0.1 μg/ml): 1.7 -fold
- Luciferase activity (-fold) (estrogen receptor [4]; eupatilin 1 μg/ml): 1.6 -fold
- Estrogen receptor subtype through which the substance acts (luciferase assay with siERα / siERβ) (estrogen receptor [4]; MG-63 osteoblastic cells, siRNA 50 nM, eupatilin 0.1 or 1.0 μg/ml, FIG. 6): acts selectively on ERβ
- Cell lethality (% relative to control) (MCF7 breast cancer cells; eupatilin 0.1 μg/ml): 21.5 % relative to control
- Cell lethality (% relative to control) (MCF7 breast cancer cells; eupatilin 1 μg/ml): 24.5 % relative to control
- ALP activity (% relative to control) (MG-63 cells; eupatilin 0.2 μg/ml): 20.5 % relative to control
- ALP activity (% relative to control) (MG-63 cells; eupatilin 2.0 μg/ml): 60 % relative to control
